Data as given in patent publication US20060167115A1, “Compositions for the preservation of timber” (priority 2003, published 2006).
“And” between values parts separate entries of the source, which are not always exact repeats. Identical values can stand only once. “Also recorded” adds a separate entry of the source.

Legend:
[1] = system: Coniophora puteana; assay: Biological screening test (modified EN 113), wood block weight loss; format: cell-based; settings: 7 weeks exposure
Method: (§1) The following fungi were employed in this test: Coniophora puteana (Brown rot fungus) and Poria placenta (Brown rot fungus). The following preservative was tested: TBBA (in ethanol carrier). Five concentrations of the preservative were used: 2%, 1%, 0.1%, 0.05% and 0.01% (w/w).
(§2) All wood blocks employed in the examples to follow were of Scots pine sapwood (Pinus sylvestris) with a volume of 1 cm^3 (10 mm×10 mm×10 mm). Five replicate test specimens were used for each concentration of the preservative. Six virulence control specimens for each fungus were used to establish the wood decay capability of the fungi. Other test blocks were used to establish: the virulence of the test fungi; the absence of a preserving effect of the ethanol carrier; and weight changes of test blocks for reasons other than decay • Treated test specimens: 2 (fungi)×5 (preservative concentrations)×1 (preservative)×5 (replicates)=50 test blocks • Untreated test specimens (for exposure alongside treated blocks): one for each treated block=50 test blocks • Virulence control specimens: 2 (fungi)×6 (replicates)=12 test blocks • Ethanol carrier test specimens: 2 (fungi)×5 (replicates)=10 test blocks • Treated check test specimens: 1 (preservatives)×5 (concentrations)×5 (replicates)=25
(§3) All timber specimens, where applicable, were treated with preservative (vacuum impregnation) and sterilized (ionizing radiation) prior to test, in accordance with European Standard EN 113. The incubation period for the test (length of block exposure to the chosen basidiomycete fungi) was 48 days or just under 7 weeks.
(§4) Weight changes for particular waterlogged specimens, when these are clearly unrepresentative of a group, are not included in the mean figures presented.
(§5) Tables I and II show weight losses (% of initial dry weight) of TBBA treated and untreated control test specimens after 7 weeks exposure to Coniophora puteana and Poria placenta respectively.
(§6) In the tables, “retention” refers to the quantity of preservative that enters the wood per cubic meter of treated wood. It's value is determined by weighing the block of wood before and after it is treated with preservative, taking the difference between the two weights, and dividing the difference in weight by the volume of the block.

[2] = system: Poria placenta; assay: as above; format: cell-based; settings: 7 weeks exposure
Method: as §1, §2, §3, §4, §5, §6

[3] = TBBA 0.01% w/w in ethanol carrier, retention 0.1 kg/m^3
[4] = TBBA 0.05% w/w in ethanol carrier, retention 0.4 kg/m^3
[5] = TBBA 0.1% w/w in ethanol carrier, retention 0.7 kg/m^3

SMILES: CC(C)(c1cc(Br)c(O)c(Br)c1)c1cc(Br)c(O)c(Br)c1 [TBBA, Tetrabromobisphenol A]
- Corrected mean loss in mass (%) [1, 3]: 39.71(2.2) (4) %
- Corrected mean loss in mass (%) [1, 4]: 40.63 (7.59) (5) %
- Corrected mean loss in mass (%) [1, 5]: 24.80 (—) (1) %
- Corrected mean loss in mass (%) ([1]; TBBA 1% w/w in ethanol carrier, retention 6.7 kg/m^3): 2.39% and 2.39 (1.56) (5) %
- Corrected mean loss in mass (%) ([1]; TBBA 2% w/w in ethanol carrier, retention 14.1 kg/m^3): no weight loss; also recorded: No mass loss
- Corrected mean loss in mass (%) [2, 3]: 0.88 (0.29) (5) %
- Corrected mean loss in mass (%) [2, 4]: 4.84 (0.32) (5) %
- Corrected mean loss in mass (%) [2, 5]: 26.67% and 26.67(11.04) %
- Corrected mean loss in mass (%) ([2]; TBBA 1% w/w in ethanol carrier, retention 6.9 kg/m^3): no weight loss; also recorded: No mass loss
- Corrected mean loss in mass (%) ([2]; TBBA 2% w/w in ethanol carrier, retention 14.2 kg/m^3): no weight loss
